Measured values taken from publication PMC7764612 (Pharmaceuticals, 2020).
Values joined by “and” are separate entries in the source; they are usually repeats but may differ in a detail not shown here. Identical values can stand only once. “Also recorded” adds a separate entry of the source.

Legend:
in vitro = conditions: human
TBEV Neudoerfl strain [1] = assay: microbe, parasite or virus in culture; type: cell-based, tick-borne encephalitis virus; conditions: for IC50: Tick-borne encephalitis virus, A549, 72 h, read-out: IC50 (concentration to reduce infectious viral titers by 50%)
TBEV Neudoerfl strain [2] = type: cell-based, tick-borne encephalitis virus
TBEV Hypr strain = type: cell-based, tick-borne encephalitis virus
TBEV E protein = type: cell-based, tick-borne encephalitis virus

CC(=O)OC[C@H]1O[C@@H](NC(=O)[C@H]2O[C@@H](n3ccc(=O)[nH]c3=O)[C@@H]3OC(C)(C)O[C@@H]32)[C@H](OC(C)=O)[C@@H](OC(C)=O)[C@@H]1OC(C)=O [Compound 13]
CC50 (in vitro): 129 µM

CC(=O)OC[C@H]1O[C@@H](NC(=O)[C@H]2O[C@@H](n3ccc(=O)[nH]c3=O)[C@@H]3OC(C)(C)O[C@@H]32)[C@H](OC(C)=O)[C@@H](OC(C)=O)[C@H]1OC(C)=O [Compound 14]
CC50 (in vitro): 114 µM

CC1(C)O[C@@H]2[C@H](O1)[C@@H](C(=O)N[C@@H]1O[C@H](COCc3ccccc3)[C@@H](OCc3ccccc3)[C@H](OCc3ccccc3)[C@H]1OCc1ccccc1)O[C@H]2n1ccc(=O)[nH]c1=O [Compound 15, N-(2″,3″,4″,6″-tetra-O-benzyl-β-D-galactopyranosyl)-2′,3′-O-isopropylidene-uridine-5′-amide]
CC50 (in vitro): 153 µM

CC(=O)OC[C@H]1O[C@@H](n2cc(CNC(=O)[C@H]3O[C@@H](n4ccc(=O)[nH]c4=O)[C@@H]4OC(C)(C)O[C@@H]43)nn2)[C@H](OC(C)=O)[C@@H](OC(C)=O)[C@@H]1OC(C)=O [Compound 16]
CC50 (in vitro): 136 µM

CC(=O)OC[C@H]1O[C@@H](n2cc(CNC(=O)[C@H]3O[C@@H](n4ccc(=O)[nH]c4=O)[C@@H]4OC(C)(C)O[C@@H]43)nn2)[C@H](OC(C)=O)[C@@H](OC(C)=O)[C@H]1OC(C)=O [Compound 17]
CC50 (in vitro): 137 µM

CC(=O)OC[C@H]1O[C@@H](n2cc(CNC(=O)[C@H]3O[C@@H](n4ccc(=O)[nH]c4=O)[C@H](O[Si](C)(C)C(C)(C)C)[C@@H]3O[Si](C)(C)C(C)(C)C)nn2)[C@H](OC(C)=O)[C@@H](OC(C)=O)[C@@H]1OC(C)=O [Compound 18, 1-(2″,3″,4″,6″-tetra-O-acetyl-β-D-glucopyranosyl)-4-(2′,3′-di-O-tert-butyldimethylsilyl-uridine-5′-carbonylaminomethyl)-[1,2,3]-triazole]
CC50 (in vitro): 69 µM | Effect on TBEV titers in dose-response assay (TBEV Neudoerfl strain [1]): significantly reduced TBEV titers in a dose-dependent manner | Reduction in viral titer (TBEV Neudoerfl strain [1]): 10^3–10^6 fold | SI (selectivity index: CC50/IC50) (TBEV Neudoerfl strain [1]): 7.4 | IC50 (TBEV Neudoerfl strain [1]): 9.3 µM | Inhibition of TBEV propagation (size and number of plaques) (TBEV Neudoerfl strain [2]): effectively inhibited virus propagation | Reduction in the number of plaques (TBEV Neudoerfl strain [2]): 98% | TBEV-induced cytopathic effect / rate of cell death (TBEV Hypr strain): strongly reduced; also recorded: significantly increased cell survival | Production of TBEV E protein (Western blot) (TBEV E protein): dose-dependent reduction

CC(=O)OC[C@H]1O[C@@H](n2cc(CNC(=O)[C@H]3O[C@@H](n4ccc(=O)[nH]c4=O)[C@H](O[Si](C)(C)C(C)(C)C)[C@@H]3O[Si](C)(C)C(C)(C)C)nn2)[C@H](OC(C)=O)[C@@H](OC(C)=O)[C@H]1OC(C)=O [Compound 19, 1-(2″,3″,4″,6″-tetra-O-acetyl-β-D-galactopyranosyl)-4-(2′,3′-di-O-tert-butyldimethylsilyl-uridine-5′-carbonylaminomethyl)-[1,2,3]-triazole]
CC50 (in vitro): 77 µM | Effect on TBEV titers in dose-response assay (TBEV Neudoerfl strain [1]): significantly reduced TBEV titers in a dose-dependent manner | Reduction in viral titer (TBEV Neudoerfl strain [1]): 10^3–10^6 fold | SI (selectivity index: CC50/IC50) (TBEV Neudoerfl strain [1]): 5.1 | IC50 (TBEV Neudoerfl strain [1]): 15.1 µM | Inhibition of TBEV propagation (size and number of plaques) (TBEV Neudoerfl strain [2]): effectively inhibited virus propagation | Reduction in the number of plaques (TBEV Neudoerfl strain [2]): 81% | TBEV-induced cytopathic effect / rate of cell death (TBEV Hypr strain): strongly reduced; also recorded: significantly increased cell survival | Production of TBEV E protein (Western blot) (TBEV E protein): dose-dependent reduction

CC(=O)OC[C@H]1O[C@@H](n2cc(COC[C@H]3O[C@@H](n4ccc(=O)[nH]c4=O)[C@H](O[Si](C)(C)C(C)(C)C)[C@@H]3O[Si](C)(C)C(C)(C)C)nn2)[C@H](OC(C)=O)[C@@H](OC(C)=O)[C@@H]1OC(C)=O [Compound 20, 1-(2″,3″,4″,6″-tetra-O-acetyl-β-D-glucopyranosyl)-4-(2′,3′-di-O-tert-butyldimethylsilyl-uridine-5′-O-methyl)-[1,2,3]-triazole]
CC50 (in vitro): 184 µM | Effect on TBEV titers in dose-response assay (TBEV Neudoerfl strain [1]): significantly reduced TBEV titers in a dose-dependent manner | Reduction in viral titer (TBEV Neudoerfl strain [1]): 10^3 fold | SI (selectivity index: CC50/IC50) (TBEV Neudoerfl strain [1]): 49.7 | Virus detected in culture supernatant (viral titer) (TBEV Neudoerfl strain [1]): no virus was detected | IC50 (TBEV Neudoerfl strain [1]): 3.7 µM | Inhibition of TBEV propagation (size and number of plaques) (TBEV Neudoerfl strain [2]): nearly a complete inhibition of TBEV propagation | Plaques detected in dose-response plaque reduction assay (TBEV Neudoerfl strain [2]): no plaques were detected | Reduction in the number of plaques (TBEV Neudoerfl strain [2]): 96% and 75% | TBEV-induced cytopathic effect / rate of cell death (TBEV Hypr strain): nearly completely inhibited; also recorded: significantly increased cell survival | Production of TBEV E protein (Western blot) (TBEV E protein): complete inhibition of viral protein synthesis

CC(=O)OC[C@H]1O[C@@H](n2cc(COC[C@H]3O[C@@H](n4ccc(=O)[nH]c4=O)[C@H](O[Si](C)(C)C(C)(C)C)[C@@H]3O[Si](C)(C)C(C)(C)C)nn2)[C@H](OC(C)=O)[C@@H](OC(C)=O)[C@H]1OC(C)=O [Compound 21, 1-(2″,3″,4″,6″-tetra-O-acetyl-β-D-galactopyranosyl)-4-(2′,3′-di-O-tert-butyldimethylsilyl-uridine-5′-O-methyl)-[1,2,3]-triazole]
CC50 (in vitro): 116 µM | Effect on TBEV titers in dose-response assay (TBEV Neudoerfl strain [1]): significantly reduced TBEV titers in a dose-dependent manner | Reduction in viral titer (TBEV Neudoerfl strain [1]): 10^4 fold | SI (selectivity index: CC50/IC50) (TBEV Neudoerfl strain [1]): 24.7 | Virus detected in culture supernatant (viral titer) (TBEV Neudoerfl strain [1]): no virus was detected | IC50 (TBEV Neudoerfl strain [1]): 4.7 µM | Inhibition of TBEV propagation (size and number of plaques) (TBEV Neudoerfl strain [2]): nearly a complete inhibition of TBEV propagation | Plaques detected in dose-response plaque reduction assay (TBEV Neudoerfl strain [2]): no plaques were detected | Reduction in the number of plaques (TBEV Neudoerfl strain [2]): 92% and 62% | TBEV-induced cytopathic effect / rate of cell death (TBEV Hypr strain): nearly completely inhibited; also recorded: significantly increased cell survival | Production of TBEV E protein (Western blot) (TBEV E protein): dose-dependent reduction; also recorded: greatly decreased at all tested concentrations

CC(=O)OC[C@H]1O[C@@H](OCc2cn(C[C@H]3O[C@@H](n4ccc(=O)[nH]c4=O)[C@@H]4OC(C)(C)O[C@@H]43)nn2)[C@H](OC(C)=O)[C@@H](OC(C)=O)[C@@H]1OC(C)=O [Compound 22, 2′,3′-O-isopropylidene-5′-deoxy-5′-[4-(2″,3″,4″,6″-tetra-O-acetyl-β-D-glucopyranosyl-oxymethyl)-1,2-3-triazol-1-yl]uridine]
CC50 (in vitro): 173 µM | melting point: 108 to 110 °C

CC(=O)OC[C@H]1O[C@@H](OCc2cn(C[C@H]3O[C@@H](n4ccc(=O)[nH]c4=O)[C@@H]4OC(C)(C)O[C@@H]43)nn2)[C@H](OC(C)=O)[C@@H](OC(C)=O)[C@H]1OC(C)=O [Compound 23, 2′,3′-O-isopropylidene-5′-deoxy-5′-[4-(2″,3″,4″,6″-tetra-O-acetyl-β-D-galactopyranosyl-oxymethyl)-1,2-3-triazol-1-yl]uridine]
CC50 (in vitro): 157 µM | melting point: 101 to 105 °C
